{"source": "patent US7375103B2", "about": "“Optically active pyridine derivative and a medicament containing the same” (Bayer HealthCare AG, priority 2002, dated 2008)", "key": {"[1]": {"experiment": "cellular assays (not further specified)", "format": "cell-based", "procedure": "[The Measurement of RANTES Production in Response to TNF-α from A549 cells]\n(1) Preparation of A549 Cells\n• The A549 human lung epithelium cell line (ATCC […]) was maintained in Dulbecco's modified Eagle's medium (D-MEM, Nikken Biomedical Institute) supplemented with 10% FCS (Gibco), 100 U/ml penicillin, 100 μg/ml streptomycin, and 2 mM glutamine (culture medium). Forty thousand (4×10^4) cells (80 μl/well) were seeded in each well of 96 well flat-bottom tissue culture plate (Falcon #3072). The plate was allowed to stand for 2 hrs, thus the cells were adhered to the bottom of each well. To the each well was added 10 μl vehicle (1% DMSO), serial dilutions of test compounds in 1% DMSO, or 5 nM Dexamethasone in 1% DMSO as a reference. The mixture (90 μl/well) was incubated for 1 hr at 37° C. After 1 hr, 1 μg/ml TNF-α (10 μl) in culture medium was added to the mixture to obtain 100 μl of reaction mixture. The reaction mixture was cultured for 24 hrs to stimulate the cells with 100 ng/ml TNF-α. […] (2) Measurement of RANTES Production • Then the concentration of RANTES released from the cells in the supernatants of each well was determined using a quantitative sandwich enzyme immunoassay technique. […] Fluorescent intensity was measured using a DELFIA fluorimeter (Wallac). Excitation was performed at 340 nm and emission was measured at 615 nm. […]"}, "[2]": {"system": "LPS-induced TNF-α production", "experiment": "Rat LPS-induced TNF-α production", "format": "in vivo, Wistar female rats", "conditions": "in Rat", "procedure": "[Rat LPS-Induced TNF-α Production]\nSeven weeks old Wistar female rats were used. One mg of LPS (lypopolysaccharide) dissolved in phosphate buffer saline (pH 7.4) was administered intraperitoneally (i.p.) to rats. Compounds were given orally 60 minutes prior to the LPS injection. Under anesthesia with pentobarbital (80 mg/kg, i.p.), blood was collected from the posterior venous cavity of the rats 120 minutes post-LPS injection and added into 96-well plate containing 2% EDTA solution. The plasma was separated by centrifugation at 1800 rpm for 10 minutes at 4° C. and then diluted with four times volumes of phosphate buffer saline (H 7.4) containing 1% bovine serum albumin. TNF-α concentration in the sample was determined using an ELISA kit (Endogen, Boston, Mass.).\nThe mean TNF-α level in 7-8 rats from each group was determined and the percent reduction in TNF-α levels was calculated."}}}
{"smiles": "O=C1Nc2nc(-c3c(O)cccc3OCC3CC3)cc([C@@H]3CCCNC3)c2CO1", "note": "[the compound of the present invention, (−)-7-[2-(cyclopropylmethoxy)-6-hydroxy-phenyl]-5-[(3S)-3-piperidinyl]-1,4-hydro-2H-pyrido [2,3-d][1,3]oxazin-2-one]", "values": [{"measurement": "cellular activity compared with corresponding racemic modification", "setting": "[1]", "value": "twice as strong as corresponding racemic modification"}, {"measurement": "anti-inflammatory activity compared with corresponding racemic modification", "setting": "[2]", "value": "twice as strong as corresponding racemic modification"}, {"measurement": "mutagenicity according to the Ames-Test Screening", "setting": "Ames-Test Screening", "value": "non-mutagenic"}]}
